Earlier results as cited in patent US20250345336A1, “ALLOPURINOL ORAL SUSPENSION” (Extrovis AG, priority 2024, published 2025).

aqueous solubility: poor aqueous solubility
SMILES: Oc1ncnc2[nH]ncc12 [Allopurinol, 1,5-dihydro-4H-pyrazolo [3,4-d] pyrimidin-4-one]
